# Experimental data reported in paper PMC11510424, “Developing Robust Human Liver Microsomal Stability Prediction Models: Leveraging Inter-Species Correlation with Rat Data” (Pharmaceutics, 2024).
# Where two headings read alike, the source gives them in different places.
# Procedure: The substrate depletion method was used to determine half-life (t1/2) of compounds by measuring the disappearance of the parent compound over time. Incubations were performed on a Tecan EVO 200 robotic system (Morrisville, NC, USA), equipped with a 96-channel head, Inheco heating block, and controlled by EVOware software (Version 3.5). Mixed-gender human liver microsomes were purchased from Xenotech (Kansas City, KS, USA) (Catalog: H0610). Gentest NADPH Regenerating Solution A and B (Catalog: 451220/451200), Axygen reservoirs (Catalog: RES-SW384-LP/RES-SW384-HP) were purchased from Corning Inc. (Corning, NY, USA). Incubation plates (384-well, 250 µL; Catalog# 186002632) and LC/MS analysis plates (384-well, 100 µL; Catalog# 186002631) were purchased from Waters Inc. (Milford, MA, USA). […] An albendazole solution in acetonitrile (ACN/IS) was prepared for use as an internal standard. Each 110 μL reaction mixture included the test compound (1 μM), HLM (0.5 mg/mL), and NADPH regenerating system in phosphate buffer (pH 7.4). The samples were incubated in 384-well plates at 37 °C for 0, 5, 10, 15, 30, and 60 min. At each designated time point, 10 μL of the mixture was transferred to another 384-well plate containing cold ACN/IS. The plates were then centrifuged at 3000 rpm for 20 min at 4 °C, and supernatants were collected into a 384-well injection plate. Sample quantification was performed using Thermo UPLC/HRMS and data were analyzed using TraceFinder software (Version 4.1). The data were then extracted, and half-life analysis was performed using our in-house Validator software (Version 1.0) as described previously.
# [1] = mixed-gender HLM 0.5 mg/mL, test compound 1 μM, NADPH regenerating system, pH 7.4, 37 °C, 0-60 min, mean ± S.D. over 6 years, > 40 plates, t1/2 capped at 120 min
SMILES,Half-Life (t1/2) [1],Half-Life (t1/2) (pH 7.4)
"CC(C)NCC(O)COc1cccc2ccccc12 (stereo not drawn) [Propranolol, propranolol]",55.2 ± 10.1 min,–
"Cc1cc(=O)n(-c2ccccc2)n1C [Antipyrine, antipyrine]",–,>120 min
"O=C1CC2(CCCC2)CC(=O)N1CCCCN1CCN(c2ncccn2)CC1 [Buspirone, buspirone]",14.4 ± 4.1 min,–
